Laboratory results reported in US11208421B2, “2-carboxypenam compound or salt thereof, pharmaceutical composition containing novel 2-carboxypenam compound or salt thereof, and applications thereof” (priority 2017, dated 2021).
In brackets after ≈: the same amount, converted by molar mass.

What was measured:
Assay type in all cases: cell-based
[1] = test system: Pseudomonas aeruginosa strain ATCC 27853; assay: Antibacterial activity evaluation test (MIC), broth microdilution, strain ATCC 27853; details: for MIC Pseudomonas aeruginosa strain ATCC 27853: cation-adjusted Mueller-Hinton medium supplemented with 20 M of apotransferrin, 35° C., 16 to 20 hours; for MIC: Pseudomonas aeruginosa, ATCC27853, read-out: MIC Pseudomonas aeruginosa strain ATCC 27853
Protocol: (§1) The minimum inhibitory concentration (MIC) was measured according to the Clinical and Laboratory Standards Institute (CLSI) standard method by using the following broth microdilution method.
(§2) As bacteria, a Pseudomonas aeruginosa strain ATCC 27853, a Pseudomonas aeruginosa AmpC derepression mutant strain S-3028, and a Pseudomonas aeruginosa IMP-1-producing strain S-2838 were used.
(§3) The Pseudomonas aeruginosa AmpC-derepression mutant strain S-3028 or the Pseudomonas aeruginosa IMP-1-producing strain S-2838 was cultured on a Mueller Hinton agar medium overnight, thereby preparing test bacterial cells. The obtained test bacterial cells were scraped off, suspended to yield 0.5 McFarland equivalence, and diluted 10-fold to obtain an inoculum. A cation-adjusted Mueller Hinton medium containing a test compound was inoculated with 0.0005 mL of the inoculum, and the cells were cultured at 35° C. for 16 to 20 hours. The minimum drug concentration at which the growth of bacteria was not visually observed was defined as MIC.
The MIC of the Pseudomonas aeruginosa ATCC strain 27853 was measured in the same manner as described above by using a cation-adjusted Mueller-Hinton medium supplemented with […] of apotransferrin as a final concentration.

[2] = test system: Pseudomonas aeruginosa IMP-1-producing strain S-2838; assay: Antibacterial activity evaluation test (MIC), broth microdilution, IMP-1-producing strain S-2838; details: for MIC Pseudomonas aeruginosa strain S-2838: IMP-1-producing strain, cation-adjusted Mueller Hinton medium, 35° C., 16 to 20 hours; for MIC: Pseudomonas aeruginosa, read-out: MIC Pseudomonas aeruginosa strain S-2838
Protocol: as §1, §2, §3

[3] = test system: Pseudomonas aeruginosa AmpC derepression mutant strain S-3028; assay: Antibacterial activity evaluation test (MIC), broth microdilution, AmpC derepression mutant strain S-3028; details: for MIC Pseudomonas aeruginosa strain S-3028: AmpC derepression mutant, cation-adjusted Mueller Hinton medium, 35° C., 16 to 20 hours; for MIC: Pseudomonas aeruginosa, read-out: MIC Pseudomonas aeruginosa strain S-3028
Protocol: as §1, §2, §3

CC(C)(O/N=C(\C(=O)N[C@@H]1C(=O)N2C[C@](SC[C@@H]3COCCN3C(=O)c3ccc(O)c(O)c3Cl)(C(=O)O)S[C@H]12)c1csc(N)n1)C(=O)O [Example 27, (3R,5R,6R)-6-((Z)-2-(2-aminothiazol-4-yl)-2-(((2-carboxypropan-2-yl)oxy)imino)acetamide)-3-((((S)-4-(2-chloro-3,4-dihydroxybenzoyl)morpholin-3-yl)methyl)thio)-7-oxo-4-thia-1-azabicyclo[3.2.0]heptane-3-carboxylic acid]
MIC Pseudomonas aeruginosa strain ATCC 27853 [1]: 1 µg/mL (≈ 1.34 µM)
MIC Pseudomonas aeruginosa strain S-2838 [2]: 0.5 µg/mL (≈ 0.671 µM)
MIC Pseudomonas aeruginosa strain S-3028 [3]: 0.5 µg/mL (≈ 0.671 µM)

CC(C)(O/N=C(\C(=O)N[C@@H]1C(=O)N2C[C@](SCCNC(=O)/C(=N\NC(N)=O)c3ccc(O)c(O)c3)(C(=O)O)S[C@H]12)c1csc(N)n1)C(=O)O [Example 14, (3R,5R,6R)-6-((Z)-2-(2-aminothiazol-4-yl)-2-(((2-carboxypropane-2-yl)oxy)imino)acetamide)-3-((2-(2-(2-carbamoylhydrazono)-2-(3,4-dihydroxyphenyl)acetamide)ethyl)thio)-7-oxo-4-thia-1-azabicyclo[3.2.0]heptane-3-carboxylic acid]
MIC [1]: 0.25 µg/mL (≈ 0.338 µM)
MIC [2]: 1 µg/mL (≈ 1.35 µM)
MIC [3]: 32 µg/mL (≈ 43.3 µM)

CN/N=C(\C(=O)NCCS[C@]1(C(=O)O)CN2C(=O)[C@@H](NC(=O)/C(=N\OC(C)(C)C(=O)O)c3csc(N)n3)[C@H]2S1)c1ccc(O)c(O)c1Cl [Example 8, (3R,5R,6R)-6-((Z)-2-(2-aminothiazol-4-yl)-2-(((2-carboxypropan-2-yl)oxy)imino)acetamide)-3-((2-((Z)-2-(2-chloro-3,4-dihydroxyphenyl)-2-(2-methylhydrazono)acetamide)ethyl)thio)-7-oxo-4-thia-1-azabicyclo[3.2.0]heptane-3-carboxylic acid]
MIC [1]: ≤ 0.0625 µg/mL
MIC [2]: 0.25 µg/mL (≈ 0.335 µM)
MIC [3]: 2 µg/mL (≈ 2.68 µM)

CC(C)(O/N=C(\C(=O)N[C@@H]1C(=O)N2C[C@](SC3CN(C(=O)C(=NNC(N)=O)c4ccc(O)c(O)c4Cl)C3)(C(=O)O)S[C@H]12)c1csc(N)n1)C(=O)O [Example 11, (3R,5R,6R)-6-((Z)-2-(2-aminothiazol-4-yl)-2-(((2-carboxypropan-2-yl)oxy)imino)acetamide)-3-((1-((Z)-2-(2-carbamoylhydrazono)-2-(2-chloro-3,4-dihydroxyphenyl)acetyl)azetidin-3-yl)thio)-7-oxo-4-thia-1-azabicyclo[3.2.0]heptane-3-carboxylic acid]
MIC [1]: ≤ 0.0625 µg/mL
MIC [2]: 2 µg/mL (≈ 2.54 µM)
MIC [3]: 1 µg/mL (≈ 1.27 µM)

CC(C)(O/N=C(\C(=O)N[C@@H]1C(=O)N2C[C@](SCCNC(=O)/C(=N\O)c3ccc(O)c(O)c3Cl)(C(=O)O)S[C@H]12)c1csc(N)n1)C(=O)O [Example 4, (3R,5R,6R)-6-((Z)-2-(2-aminothiazol-4-yl)-2-(((2-carboxypropan-2-yl)oxy)imino)acetamide)-3-((2-((Z)-2-(2-chloro-3,4-dihydroxyphenyl)-2-(hydroxyimino)acetamide)ethyl)thio)-7-oxo-4-thia-1-azabicyclo[3.2.0]heptane-3-carboxylic acid]
MIC Pseudomonas aeruginosa strain ATCC 27853 [1]: ≤0.0625 µg/mL
MIC Pseudomonas aeruginosa strain S-2838 [2]: 32 µg/mL (≈ 43.7 µM)
MIC Pseudomonas aeruginosa strain S-3028 [3]: 8 µg/mL (≈ 10.9 µM)

COC[C@H](CS[C@]1(C(=O)O)CN2C(=O)[C@@H](NC(=O)/C(=N\OC(C)(C)C(=O)O)c3csc(N)n3)[C@H]2S1)NC(=O)/C(=N\NC(N)=O)c1ccc(O)c(O)c1Cl [Example 17, (3R,5R,6R)-6-((Z)-2-(2-aminothiazol-4-yl)-2-(((2-carboxypropane-2-yl)oxy)imino)acetamide)-3-(((R)-2-(2-(2-carbamoylhydrazono)-2-(2-chloro-3,4-dihydroxyphenyl)acetamide)-3-methoxypropyl)thio)-7-oxo-4-thia-1-azabicyclo[3.2.0]heptane-3-carboxylic acid]
MIC [1]: ≤ 0.0625 µg/mL
MIC [2]: 8 µg/mL (≈ 9.78 µM)
MIC [3]: 8 µg/mL (≈ 9.78 µM)

CC(C)(O/N=C(\C(=O)N[C@@H]1C(=O)N2C[C@](SCCNC(=O)/C(=N\N)c3ccc(O)c(O)c3Cl)(C(=O)O)S[C@H]12)c1csc(N)n1)C(=O)O [Example 26, (3R,5R,6R)-6-((Z)-2-(2-aminothiazol-4-yl)-2-(((2-carboxypropan-2-yl)oxy)imino)acetamide)-3-((2-((Z)-2-(2-chloro-3,4-dihydroxyphenyl)-2-hydrazinylideneacetamide)ethyl)thio)-7-oxo-4-thia-1-azabicyclo[3.2.0]heptane-3-carboxylic acid]
MIC Pseudomonas aeruginosa strain ATCC 27853 [1]: 0.5 µg/mL (≈ 0.684 µM)
MIC Pseudomonas aeruginosa strain S-2838 [2]: 1 µg/mL (≈ 1.37 µM)
MIC Pseudomonas aeruginosa strain S-3028 [3]: 8 µg/mL (≈ 10.9 µM)

CN(CCS[C@]1(C(=O)O)CN2C(=O)[C@@H](NC(=O)/C(=N\OC(C)(C)C(=O)O)c3csc(N)n3)[C@H]2S1)NC(=O)c1ccc(O)c(O)c1Cl [Example 22, (3R,5R,6R)-6-((Z)-2-(2-aminothiazol-4-yl)-2-(((2-carboxypropan-2-yl)oxy)imino)acetamide)-3-((2-(2-(2-chloro-3,4-dihydroxybenzoyl)-1-methylhydrazinyl)ethyl)thio)-7-oxo-4-thia-1-azabicyclo[3.2.0]heptane-3-carboxylic acid]
MIC Pseudomonas aeruginosa strain ATCC 27853 [1]: 0.125 µg/mL (≈ 0.174 µM)
MIC Pseudomonas aeruginosa strain S-2838 [2]: 2 µg/mL (≈ 2.78 µM)
MIC Pseudomonas aeruginosa strain S-3028 [3]: 8 µg/mL (≈ 11.1 µM)

CO[C@@H](CNC(=O)/C(=N/NC(N)=O)c1ccc(O)c(O)c1Cl)CS[C@]1(C(=O)O)CN2C(=O)[C@@H](NC(=O)/C(=N\OC(C)(C)C(=O)O)c3csc(N)n3)[C@H]2S1 [Example 16, (3R,5R,6R)-6-((Z)-2-(2-aminothiazole-4-yl)-2-(((2-carboxypropan-2-yl)oxy)imino)acetamide)-3-(((S)-3-((E)-2-(2-carbamoylhydrazono)-2-(2-chloro-3,4-dihydroxyphenyl)acetamide)-2-methoxypropyl)thio)-7-oxo-4-thia-1-azabicyclo[3.2.0]heptane-3-carboxylic acid]
MIC [1]: 0.5 µg/mL (≈ 0.611 µM)
MIC [2]: 8 µg/mL (≈ 9.78 µM)
MIC [3]: 16 µg/mL (≈ 19.6 µM)

CC(C)(O/N=C(\C(=O)N[C@@H]1C(=O)N2C[C@](SCCNC(=O)/C(=N\NC(N)=O)c3ccc(O)c(O)c3Cl)(C(=O)O)S[C@H]12)c1csc(N)n1)C(=O)O [Example 12]
MIC [1]: ≤ 0.0625 µg/mL
MIC [2]: 4 µg/mL (≈ 5.17 µM)
MIC [3]: 16 µg/mL (≈ 20.7 µM)

CC(C)(O/N=C(\C(=O)N[C@@H]1C(=O)N2C[C@](SCCNC(=O)C(=O)c3ccc(O)c(O)c3Cl)(C(=O)O)S[C@H]12)c1csc(N)n1)C(=O)O [Example 1, (3R,5R,6R)-6-((Z)-2-(2-aminothiazol-4-yl)-2-(((2-carboxypropan-2-yl)oxy)imino)acetamide)-3-((2-(2-(2-chloro-3,4-dihydroxyphenyl)-2-oxoacetamide)ethyl)thio)-7-oxo-4-thia-1-azabicyclo[3.2.0]heptane-3-carboxylic acid]
MIC Pseudomonas aeruginosa strain ATCC 27853 [1]: 0.125 µg/mL (≈ 0.174 µM)
MIC Pseudomonas aeruginosa strain S-2838 [2]: 2 µg/mL (≈ 2.79 µM)
MIC Pseudomonas aeruginosa strain S-3028 [3]: 128 µg/mL (≈ 178 µM)
